Measurements: PubChem BioAssay (NCI)
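Grown in 96-well plates, cells were treated for 48 hours with each compound at five concentrations. Insufficient inhibition: endpoint recorded as highest concentration tested. GI50: concentration for 50% inhibition of growth. TGI marks complete inhibition of growth.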

Key:
Assay in all cases: growth of human tumour cells (NCI), 48 h
BT-549 breast = tested on: BT-549 breast
ACHN renal = tested on: ACHN renal
PC-3 prostate = tested on: PC-3 prostate
HS 578T breast = tested on: HS 578T breast
HCT-116 colon = tested on: HCT-116 colon
MDA-MB-435 = tested on: MDA-MB-435
HCC-2998 colon = tested on: HCC-2998 colon
LOX IMVI melanoma = tested on: LOX IMVI melanoma
MCF7 breast = tested on: MCF7 breast
RXF 393 renal = tested on: RXF 393 renal
NCI-H23 lung = tested on: NCI-H23 lung
NCI-H522 lung = tested on: NCI-H522 lung
KM12 colon = tested on: KM12 colon
NCI-H226 lung = tested on: NCI-H226 lung
T-47D breast = tested on: T-47D breast
M14 melanoma = tested on: M14 melanoma
SF-268 CNS = tested on: SF-268 CNS
TK-10 renal = tested on: TK-10 renal
SK-MEL-5 melanoma = tested on: SK-MEL-5 melanoma
SK-MEL-28 melanoma = tested on: SK-MEL-28 melanoma
MDA-MB-231 breast = tested on: MDA-MB-231 breast
EKVX NSCLC = tested on: EKVX NSCLC
IGROV1 ovarian = tested on: IGROV1 ovarian
OVCAR-8 ovarian = tested on: OVCAR-8 ovarian
COLO 205 colon = tested on: COLO 205 colon
SF-539 CNS = tested on: SF-539 CNS
NCI/ADR-RES ovarian = tested on: NCI/ADR-RES ovarian
SW-620 colon = tested on: SW-620 colon
U251 CNS = tested on: U251 CNS
UACC-257 melanoma = tested on: UACC-257 melanoma
DU-145 prostate = tested on: DU-145 prostate
HT29 colon = tested on: HT29 colon
A498 renal = tested on: A498 renal
OVCAR-3 ovarian = tested on: OVCAR-3 ovarian
SK-MEL-2 melanoma = tested on: SK-MEL-2 melanoma
OVCAR-5 ovarian = tested on: OVCAR-5 ovarian
CAKI-1 renal = tested on: CAKI-1 renal
HCT-15 colon = tested on: HCT-15 colon
HOP-92 NSCLC = tested on: HOP-92 NSCLC
A549 NSCLC = tested on: A549 NSCLC
SK-OV-3 ovarian = tested on: SK-OV-3 ovarian
SNB-75 CNS = tested on: SNB-75 CNS
SNB-19 CNS = tested on: SNB-19 CNS
UO-31 renal = tested on: UO-31 renal
OVCAR-4 ovarian = tested on: OVCAR-4 ovarian
RPMI-8226 leukemia = tested on: RPMI-8226 leukemia
786-0 renal = tested on: 786-0 renal
SF-295 CNS = tested on: SF-295 CNS
UACC-62 melanoma = tested on: UACC-62 melanoma
SN12C renal = tested on: SN12C renal
MALME-3M melanoma = tested on: MALME-3M melanoma
NCI-H460 lung = tested on: NCI-H460 lung
MOLT-4 leukemia = tested on: MOLT-4 leukemia
HOP-62 NSCLC = tested on: HOP-62 NSCLC
CCRF-CEM leukemia = tested on: CCRF-CEM leukemia
K-562 leukemia = tested on: K-562 leukemia
SR leukemia = tested on: SR leukemia
HL-60(TB) leukemia = tested on: HL-60(TB) leukemia

## CCCCCCCCc1cc[n+](CC(=O)c2ccc(Br)cc2)cc1
BT-549 breast
  GI50: 2440 nM
  TGI: 5520 nM
ACHN renal
  GI50: 1640 nM
  TGI: 2990 nM
PC-3 prostate
  GI50: 1510 nM
  TGI: 3000 nM
HS 578T breast
  GI50: 1860 nM
  TGI: 3750 nM
HCT-116 colon
  GI50: 1190 nM
  TGI: 2490 nM
MDA-MB-435
  GI50: 1540 nM
  TGI: 2970 nM
HCC-2998 colon
  GI50: 1610 nM
  TGI: 2960 nM
LOX IMVI melanoma
  GI50: 1570 nM
  TGI: 2910 nM
MCF7 breast
  GI50: 1520 nM
  TGI: 2840 nM
RXF 393 renal
  GI50: 1690 nM
  TGI: 3170 nM
NCI-H23 lung
  GI50: 1480 nM
  TGI: 2990 nM
NCI-H522 lung
  GI50: 1020 nM
  TGI: 2260 nM
KM12 colon
  GI50: 1490 nM
  TGI: 2810 nM
NCI-H226 lung
  GI50: 1510 nM
  TGI: 3010 nM
T-47D breast
  GI50: 1640 nM
  TGI: 3140 nM
M14 melanoma
  GI50: 1750 nM
  TGI: 3240 nM
SF-268 CNS
  GI50: 1580 nM
  TGI: 2920 nM
TK-10 renal
  GI50: 1400 nM
  TGI: 2700 nM
SK-MEL-5 melanoma
  GI50: 1510 nM
  TGI: 2890 nM
SK-MEL-28 melanoma
  GI50: 1640 nM
  TGI: 3040 nM
MDA-MB-231 breast
  GI50: 1450 nM
  TGI: 2850 nM
EKVX NSCLC
  GI50: 1380 nM
  TGI: 2800 nM
IGROV1 ovarian
  GI50: 1090 nM
  TGI: 2450 nM
OVCAR-8 ovarian
  GI50: 1680 nM
  TGI: 3220 nM
COLO 205 colon
  GI50: 1090 nM
  TGI: 2280 nM
SF-539 CNS
  GI50: 1610 nM
  TGI: 2960 nM
NCI/ADR-RES ovarian
  GI50: 8770 nM
  TGI: 21900 nM
SW-620 colon
  GI50: 1410 nM
  TGI: 2770 nM
U251 CNS
  GI50: 1470 nM
  TGI: 2790 nM
UACC-257 melanoma
  GI50: 1640 nM
  TGI: 3110 nM
DU-145 prostate
  GI50: 1510 nM
  TGI: 2860 nM
HT29 colon
  GI50: 580 nM
  TGI: 1970 nM
A498 renal
  GI50: 4420 nM
  TGI: 18100 nM
OVCAR-3 ovarian
  GI50: 1440 nM
  TGI: 2750 nM
SK-MEL-2 melanoma
  GI50: 1610 nM
  TGI: 3030 nM
OVCAR-5 ovarian
  GI50: 1460 nM
  TGI: 2900 nM
CAKI-1 renal
  GI50: 1370 nM
  TGI: 2840 nM
HCT-15 colon
  GI50: 1640 nM
  TGI: 3200 nM
HOP-92 NSCLC
  GI50: 1470 nM
  TGI: 4100 nM
A549 NSCLC
  GI50: 1770 nM
  TGI: 3250 nM
SK-OV-3 ovarian
  GI50: 1530 nM
  TGI: 2950 nM
SNB-75 CNS
  GI50: 1280 nM
  TGI: 2540 nM
SNB-19 CNS
  GI50: 1590 nM
  TGI: 3310 nM
UO-31 renal
  GI50: 1490 nM
  TGI: 3190 nM
OVCAR-4 ovarian
  GI50: 1110 nM
  TGI: 2310 nM
RPMI-8226 leukemia
  GI50: 1770 nM
  TGI: 3790 nM
786-0 renal
  GI50: 1870 nM
  TGI: 3300 nM
SF-295 CNS
  GI50: 1440 nM
  TGI: 2830 nM
UACC-62 melanoma
  GI50: 1440 nM
  TGI: 2760 nM
SN12C renal
  GI50: 1550 nM
  TGI: 2980 nM
MALME-3M melanoma
  GI50: 1690 nM
  TGI: 3500 nM
NCI-H460 lung
  GI50: 1650 nM
  TGI: 3070 nM

## C=C1C(=O)O[C@H]2[C@H]1CC/C(COC(=O)CCCCCCC(=O)OC/C1=C/CC[C@@]3(C)O[C@H]3[C@H]3OC(=O)C(=C)[C@@H]3CC1)=C\CC[C@@]1(C)O[C@@H]21
BT-549 breast
  GI50: 1810 nM
  TGI: 4330 nM
ACHN renal
  GI50: 2560 nM
  TGI: 8980 nM
PC-3 prostate
  GI50: 2740 nM
  TGI: 7980 nM
HS 578T breast
  GI50: 2300 nM
  TGI: 8700 nM
MDA-MB-435
  GI50: 3330 nM
  TGI: 14200 nM
HCC-2998 colon
  GI50: 3760 nM
  TGI: 12500 nM
LOX IMVI melanoma
  GI50: 1580 nM
  TGI: 3120 nM
RXF 393 renal
  GI50: 1610 nM
  TGI: 3330 nM
MOLT-4 leukemia
  GI50: 2400 nM
  TGI: 9930 nM
NCI-H23 lung
  GI50: 2940 nM
  TGI: 12600 nM
NCI-H522 lung
  GI50: 1920 nM
  TGI: 3450 nM
KM12 colon
  GI50: 3840 nM
  TGI: 16900 nM
NCI-H226 lung
  GI50: 2390 nM
  TGI: 6650 nM
T-47D breast
  GI50: 3480 nM
  TGI: 10800 nM
M14 melanoma
  GI50: 2480 nM
  TGI: 8550 nM
SF-268 CNS
  GI50: 3510 nM
  TGI: 14300 nM
TK-10 renal
  GI50: 3460 nM
  TGI: 9420 nM
SK-MEL-5 melanoma
  GI50: 4830 nM
  TGI: 16600 nM
SK-MEL-28 melanoma
  GI50: 2950 nM
  TGI: 10200 nM
MDA-MB-231 breast
  GI50: 2280 nM
  TGI: 5940 nM
EKVX NSCLC
  GI50: 3660 nM
  TGI: 16100 nM
IGROV1 ovarian
  GI50: 2910 nM
  TGI: 10500 nM
OVCAR-8 ovarian
  GI50: 3000 nM
  TGI: 10300 nM
COLO 205 colon
  GI50: 2000 nM
  TGI: 4260 nM
SF-539 CNS
  GI50: 2520 nM
  TGI: 7000 nM
NCI/ADR-RES ovarian
  GI50: 4260 nM
  TGI: 29600 nM
SW-620 colon
  GI50: 2180 nM
  TGI: 6240 nM
U251 CNS
  GI50: 2960 nM
  TGI: 10300 nM
UACC-257 melanoma
  GI50: 2100 nM
  TGI: 6220 nM
DU-145 prostate
  GI50: 5590 nM
  TGI: 17700 nM
HT29 colon
  GI50: 2410 nM
  TGI: 4900 nM
A498 renal
  GI50: 15300 nM
  TGI: 30500 nM
OVCAR-3 ovarian
  GI50: 2550 nM
  TGI: 10000 nM
SK-MEL-2 melanoma
  GI50: 12600 nM
  TGI: 29700 nM
OVCAR-5 ovarian
  GI50: 2540 nM
  TGI: 7500 nM
HCT-15 colon
  GI50: 2630 nM
  TGI: 10100 nM
HOP-92 NSCLC
  GI50: 2240 nM
  TGI: 8140 nM
HOP-62 NSCLC
  GI50: 6690 nM
  TGI: 22900 nM
A549 NSCLC
  GI50: 16900 nM
  TGI: 45000 nM
SK-OV-3 ovarian
  GI50: 35900 nM
  TGI: > 100000 nM
SNB-75 CNS
  GI50: 12900 nM
  TGI: 36600 nM
CCRF-CEM leukemia
  GI50: 1110 nM
  TGI: 5890 nM
K-562 leukemia
  GI50: 2730 nM
  TGI: 11100 nM
SNB-19 CNS
  GI50: 7170 nM
  TGI: 24100 nM
SR leukemia
  GI50: 1510 nM
  TGI: 9880 nM
HL-60(TB) leukemia
  GI50: 1500 nM
  TGI: 4230 nM
UO-31 renal
  GI50: 1580 nM
  TGI: 4370 nM
OVCAR-4 ovarian
  GI50: 3230 nM
  TGI: 13800 nM
RPMI-8226 leukemia
  GI50: 2270 nM
  TGI: 6420 nM
786-0 renal
  GI50: 1840 nM
  TGI: 3870 nM
SF-295 CNS
  GI50: 10800 nM
  TGI: 24700 nM
UACC-62 melanoma
  GI50: 5470 nM
  TGI: 20200 nM
SN12C renal
  GI50: 2900 nM
  TGI: 11200 nM
MALME-3M melanoma
  GI50: 2550 nM
  TGI: 7050 nM
NCI-H460 lung
  GI50: 5360 nM
  TGI: 23900 nM
